ChEMBL document CHEMBL1157484, “Protein subtype-targeting through ligand epimerization: talose-selectivity of galectin-4 and galectin-8” (Bioorg Med Chem Lett, 2008)

Legend:
[1] = Binding affinity to human galectin4C by fluorescence polarization assay
[2] = Binding affinity to human galectin8N by fluorescence polarization assay
[3] = Binding affinity to human galectin4N by fluorescence polarization assay
[4] = Binding affinity to human galectin9N by fluorescence polarization assay
Galectin-2 = target: T1, Galectin-2 (Homo sapiens, UniProt P05162); experiment: Binding affinity to human galectin2 by fluorescence polarization assay
T1 sequence (P05162 whole entry): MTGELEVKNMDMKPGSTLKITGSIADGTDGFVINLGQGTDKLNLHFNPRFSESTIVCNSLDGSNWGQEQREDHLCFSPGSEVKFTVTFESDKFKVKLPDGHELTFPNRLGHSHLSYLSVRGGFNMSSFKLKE

Galectin-3 = Galectin-3 (Homo sapiens, UniProt P17931); experiment: Binding affinity to human galectin3 by fluorescence polarization assay
Galectin-1 = Galectin-1 (Homo sapiens, UniProt P09382); experiment: Binding affinity to human galectin1 by fluorescence polarization assay
Chain of Galectin-1 (P09382 whole entry): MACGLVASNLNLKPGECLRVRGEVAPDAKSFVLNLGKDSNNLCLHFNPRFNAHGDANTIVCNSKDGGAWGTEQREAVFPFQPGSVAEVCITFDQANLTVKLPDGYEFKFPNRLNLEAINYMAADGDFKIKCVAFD

Chain of Galectin-3 (P17931 whole entry): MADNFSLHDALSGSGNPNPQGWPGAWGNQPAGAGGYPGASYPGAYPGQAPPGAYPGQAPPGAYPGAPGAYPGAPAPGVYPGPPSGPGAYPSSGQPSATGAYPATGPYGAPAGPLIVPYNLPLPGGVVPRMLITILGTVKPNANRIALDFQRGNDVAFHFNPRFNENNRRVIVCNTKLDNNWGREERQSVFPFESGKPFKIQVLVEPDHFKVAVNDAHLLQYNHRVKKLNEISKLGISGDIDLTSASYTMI

SMILES | Kd [1] [mM] | Kd [2] [mM] | Kd [3] [mM] | Kd [4] [mM] | Kd (Galectin-2) [mM] | Kd (Galectin-3) [mM] | Kd (Galectin-1) [mM]
CO[C@@H]1O[C@H](CO)[C@H](O)[C@H](O)[C@H]1O | > 10 | 6.3 | 6.6 | 1.2 | 13 |  | 
CO[C@@H]1O[C@H](CO)[C@H](O)[C@H](OC(=O)c2ccc(C)cc2)[C@@H]1OP(=O)(O)OC | > 4 | 1 | > 4 | > 4 | > 4 | 0.6 | > 4
CO[C@@H]1O[C@H](CO)[C@H](O)[C@H](OC(=O)c2ccc(C)cc2)[C@@H]1O |  | 0.4 | > 4 | > 4 |  | 1.4 | 2
CO[C@@H]1O[C@H](CO)[C@H](O)[C@H](OC(=O)c2ccc(C)cc2)[C@@H]1OC(=O)c1ccc(C)cc1 | 0.16 | 3.6 | > 4 | > 4 | > 4 | 0.7 | 1.8
CO[C@@H]1O[C@H](CO)[C@H](O)[C@H](O)[C@@H]1O | 10 | 1.5 | > 10 | 4.6 | > 10 |  | 

Continued, values first:

Kd [1] [mM] | Kd [2] [mM] | Kd [3] [mM] | Kd [4] [mM] | Kd (Galectin-2) [mM] | Kd (Galectin-3) [mM] | Kd (Galectin-1) [mM] | SMILES
1.6 | > 4 | > 4 | > 4 | > 4 | 0.55 | > 4 | CO[C@@H]1O[C@H](CO)[C@H](O)[C@H](OC(=O)c2ccc(C)cc2)[C@@H]1OC(C)=O
> 4 |  | > 4 | > 4 | 1.5 | 2.3 | > 4 | CO[C@@H]1O[C@H](CO)[C@H](O)[C@H](OC(=O)c2ccc(C)cc2)[C@@H]1O[PH](=O)O
3 | 1.1 | > 4 | > 4 | > 4 | 0.25 | > 4 | CO[C@@H]1O[C@H](CO)[C@H](O)[C@H](OC(=O)c2ccc(C)cc2)[C@@H]1OS(=O)(=O)O
